Experimental data reported in ChEMBL document CHEMBL3994632, “Selenoesters and selenoanhydrides as novel multidrug resistance reversing agents: A confirmation study in a colon cancer MDR cell line” (Bioorg Med Chem Lett, 2017).

Legend:
[1] = Selectivity index, ratio of IC50 for human MRC5 cells to IC50 for doxorubicin-sensitive human COLO205 cells; assay type: functional
COLO 205 = experiment: Cytotoxicity against doxorubicin-sensitive human COLO205 cells after 24 hrs by MTT assay; assay type: functional, cell-based; conditions: COLO 205, 24 h
[2] = Selectivity index, ratio of IC50 for human MRC5 cells to IC50 for multidrug resistant human COLO320 cells; assay type: functional
COLO 320 [3] = experiment: Induction of apoptosis in human COLO320 cells at 2 uM after 24 hrs by Annexin V-FITC/propidium iodide staining based flow cytometry relative to M627; assay type: functional
COLO 320 [4] = experiment: Cytotoxicity against multidrug resistant human COLO320 cells after 24 hrs by MTT assay; assay type: functional, cell-based; conditions: COLO 320, 24 h
MRC5 = experiment: Cytotoxicity against human MRC5 cells after 24 hrs by MTT assay; assay type: ADME, cell-based; conditions: MRC5, 24 h
[5] = Selectivity index, ratio of IC50 for doxorubicin-sensitive human COLO205 cells to IC50 for multidrug resistant human COLO320 cells; assay type: functional
[6] = molecular target: ATP-dependent translocase ABCB1 (Homo sapiens, UniProt P08183); experiment: Inhibition of human MDR1 transfected in mouse T lymphoma cells assessed as rhodamine-123 accumulation measured as fluorescence activity ratio quotient at 2 uM preincubated for 10 mins followed by rhodamine-123 addition measured after 20 mins by flow cytometry relative to verapamil; assay type: cell-based; design: scale not given: the % may be the effect or the level left
Chain of ATP-dependent translocase ABCB1 (P08183 whole entry): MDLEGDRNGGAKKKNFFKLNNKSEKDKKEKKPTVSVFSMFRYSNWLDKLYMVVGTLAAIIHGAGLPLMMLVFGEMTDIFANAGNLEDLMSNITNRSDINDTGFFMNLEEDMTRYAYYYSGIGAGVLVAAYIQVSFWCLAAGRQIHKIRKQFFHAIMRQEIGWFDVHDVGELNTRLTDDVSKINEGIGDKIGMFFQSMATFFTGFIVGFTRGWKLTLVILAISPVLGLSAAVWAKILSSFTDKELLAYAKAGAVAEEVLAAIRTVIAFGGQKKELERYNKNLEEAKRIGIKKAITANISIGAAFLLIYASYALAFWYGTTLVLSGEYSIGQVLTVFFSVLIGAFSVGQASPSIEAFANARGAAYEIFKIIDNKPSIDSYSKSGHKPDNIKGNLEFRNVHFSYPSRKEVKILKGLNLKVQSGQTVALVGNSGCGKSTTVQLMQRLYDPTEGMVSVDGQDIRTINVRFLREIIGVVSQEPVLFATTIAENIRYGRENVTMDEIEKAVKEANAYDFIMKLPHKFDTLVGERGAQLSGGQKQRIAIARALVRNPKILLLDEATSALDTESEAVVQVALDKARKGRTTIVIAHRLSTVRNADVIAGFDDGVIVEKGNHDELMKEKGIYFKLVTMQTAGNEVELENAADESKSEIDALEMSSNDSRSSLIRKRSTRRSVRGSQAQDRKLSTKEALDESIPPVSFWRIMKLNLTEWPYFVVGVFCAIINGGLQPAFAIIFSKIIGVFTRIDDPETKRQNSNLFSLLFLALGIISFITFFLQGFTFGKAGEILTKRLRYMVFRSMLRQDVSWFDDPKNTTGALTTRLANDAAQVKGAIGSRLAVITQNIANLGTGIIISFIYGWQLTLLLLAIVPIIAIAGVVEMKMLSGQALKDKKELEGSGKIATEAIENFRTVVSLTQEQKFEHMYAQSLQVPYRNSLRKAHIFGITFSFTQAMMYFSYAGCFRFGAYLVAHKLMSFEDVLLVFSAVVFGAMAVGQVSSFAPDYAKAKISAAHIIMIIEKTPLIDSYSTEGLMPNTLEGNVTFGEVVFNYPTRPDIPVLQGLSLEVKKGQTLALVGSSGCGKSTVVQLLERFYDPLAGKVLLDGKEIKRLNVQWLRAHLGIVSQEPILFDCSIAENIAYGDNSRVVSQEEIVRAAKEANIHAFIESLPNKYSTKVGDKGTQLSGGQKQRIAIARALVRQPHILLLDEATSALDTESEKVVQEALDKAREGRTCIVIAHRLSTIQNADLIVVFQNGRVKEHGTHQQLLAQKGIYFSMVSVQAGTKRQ

COLO 320 [7] = experiment: Induction of apoptosis in human COLO320 cells assessed as late apoptotic/necrotic cells at 20 uM after 24 hrs by Annexin V-FITC/propidium iodide staining based flow cytometry (reference value: 9.93%); assay type: functional
COLO 320 [8] = experiment: Induction of apoptosis in human COLO320 cells assessed as early apoptotic cells at 20 uM after 24 hrs by Annexin V-FITC/propidium iodide staining based flow cytometry (reference value: 20.3%); assay type: functional
COLO 320 [9] = experiment: Induction of apoptosis in human COLO320 cells assessed as cell death at 20 uM after 24 hrs by Annexin V-FITC/propidium iodide staining based flow cytometry (reference value: 4.75%); assay type: functional

SMILES | Ratio IC50 [1] | IC50 (COLO 205) [µM] | Ratio IC50 [2] | Activity (COLO 320 [3]) [%] | IC50 (COLO 320 [4]) [µM] | IC50 (MRC5) [µM] | Ratio IC50 [5] | Activity [6] [%] | Activity (COLO 320 [7]) [%] | Activity (COLO 320 [8]) [%] | Activity (COLO 320 [9]) [%]
NC(=O)C[Se]C(=O)c1ccccc1 | <=0.77 | > 100 | <=0.77 | 37.3 | > 100 | 76.6 | – | – | – | – | –
O=C1[Se]C(=O)c2ccccc21 | – | > 100 | >=1.6 | 88.4 | 63.9 | > 100 | >=1.6 | – | – | – | –
COC(=O)C[Se]C(=O)c1ccc(Cl)cc1 | <=0.33 | > 100 | <=0.33 | 43.4 | > 100 | 33.4 | – | – | – | – | –
O=C(C[Se]C(=O)c1ccccc1)Oc1ccccc1 | – | > 100 | >=1.9 | 43 | 53.7 | > 100 | >=1.9 | – | – | – | –
CC(=O)C[Se]C(=O)c1ccc(Cl)cc1 | 0.98 | 5.48 | 9.7 | 87.7 | 0.55 | 5.35 | 10 | – | – | – | –
CC(C)(C)C(=O)C[Se]C(=O)c1ccc(Cl)cc1 | 5 | 1.63 | 8.4 | 80.3 | 0.96 | 8.1 | 1.7 | 34 to 217 | – | – | –
COc1cc(OC)cc(C(=O)[Se]CC(=O)C(C)(C)C)c1 | 4.2 | 1.19 | 14.4 | 88.7 | 0.35 | 5.04 | 3.4 | 46 to 228 | – | – | –
C[Se]C(=O)c1ccc(C(=O)[Se]C)cc1 | <=0.62 | > 100 | <=0.62 | 36.9 | > 100 | 61.5 | – | – | – | – | –
C[Se]C(=O)c1cccc(C(=O)[Se]C)c1 | <=0.28 | > 100 | 2.3 | 36.3 | 12.5 | 28.4 | >=8 | – | – | – | –
C[Se]C(=O)c1cccc(C(=O)[Se]C)n1 | <=0.18 | > 100 | <=0.18 | 36.9 | > 100 | 17.9 | – | – | – | – | –
C[Se]C(=O)c1ccc(C(=O)[Se]C)s1 | <=0.04 | > 100 | <=0.04 | 30.4 | > 100 | 4.26 | – | – | – | – | –
N.N#CS | – | > 100 | – | 9.55 | > 100 | > 100 | – | – | – | – | –
c1ccc2c(c1)Nc1c(ccc3ccccc13)S2 | – | – | – | – | – | – | – | – | 22 | 58.5 | 2.91
N#C[O-].[K+] | – | > 100 | – | 7.28 | > 100 | > 100 | – | – | – | – | –
N#C[Se-].[K+] | – | > 100 | – | 6.98 | > 100 | > 100 | – | – | – | – | –
O=C1OC(=O)c2ccccc21 [PHTHALIC ANHYDRIDE] | – | > 100 | – | 6.06 | > 100 | > 100 | – | – | – | – | –
